From patent publication US20230024442A1, “BIFUNCTIONAL COMPOUNDS FOR GRADING BTK VIA UBIQUITIN PROTEOSOME PATHWAY” (NURIX THERAPEUTICS, INC., priority 2019, published 2023)

Molecular target: T1, BTK (Homo sapiens, UniProt Q06187)
T1 construct: endogenous in cells; host or cells: Ramos (ATCC CRL-1596)
Experiment: Cellular BTK HTRF Assay (BTK levels in Ramos cells)
Assay type: cell-based
Details: Ramos cells, 50,000 cells, incubated four hours at 37° C.; BTK levels by Cisbio Total-BTK HTRF relative to DMSO-treated cells
Experimental: Ramos (CRL-1596) cells were obtained from American Type Culture Collection and were grown in RPMI-1640 media (ATCC, 30-2001) supplemented with 10% heat-inactivated FBS (Corning Premium Fetal Bovine Serum from Fisher, MT35015CV).
Compounds of the present invention were added to 50,000 Ramos cells in round-bottom 96 well plates with a final DMSO concentration of […] and were incubated at 37° C. 5% CO2 for four hours. BTK levels were determined using Cisbio Total-BTK HTRF ([…] Time-Resolved Fluorescence) kit (63ADK064PEG) according to manufacturer's protocol. Briefly, cells were incubated in 1× supplied lysis buffer for 30 minutes. In an opaque white low volume 96 well plate (Cisbio, 66PL96005), cell lysate was combined with two different specific BTK antibodies, one conjugated with Eu^3+-Cryptate FRET donor and one conjugated with d2 FRET acceptor. Assay controls include wells containing cell lysate with only the Eu^3+-Cryptate FRET donor antibody and wells containing both HTRF antibodies and lysis buffer without cells or control lysate provided by Cisbio. HTRF ratio was calculated as (acceptor signal at 665 nm/donor signal at 620 nm)×10^4. Background HTRF levels were determined from the control well containing the donor, but no acceptor, antibody. Background HTRF levels were subtracted from all samples. Readouts were reported as HTRF levels relative to HTRF levels of DMSO-treated cells. Four-parameter non-linear regressions were performed in GraphPad Prism 7.02 to obtain DC50 values. DC50 values are provided in Table 7, wherein A<1 nM, 1 nM≤B≤10 nM, and 10 nM<C<1 μM.

T1 sequence (Q06187 whole entry): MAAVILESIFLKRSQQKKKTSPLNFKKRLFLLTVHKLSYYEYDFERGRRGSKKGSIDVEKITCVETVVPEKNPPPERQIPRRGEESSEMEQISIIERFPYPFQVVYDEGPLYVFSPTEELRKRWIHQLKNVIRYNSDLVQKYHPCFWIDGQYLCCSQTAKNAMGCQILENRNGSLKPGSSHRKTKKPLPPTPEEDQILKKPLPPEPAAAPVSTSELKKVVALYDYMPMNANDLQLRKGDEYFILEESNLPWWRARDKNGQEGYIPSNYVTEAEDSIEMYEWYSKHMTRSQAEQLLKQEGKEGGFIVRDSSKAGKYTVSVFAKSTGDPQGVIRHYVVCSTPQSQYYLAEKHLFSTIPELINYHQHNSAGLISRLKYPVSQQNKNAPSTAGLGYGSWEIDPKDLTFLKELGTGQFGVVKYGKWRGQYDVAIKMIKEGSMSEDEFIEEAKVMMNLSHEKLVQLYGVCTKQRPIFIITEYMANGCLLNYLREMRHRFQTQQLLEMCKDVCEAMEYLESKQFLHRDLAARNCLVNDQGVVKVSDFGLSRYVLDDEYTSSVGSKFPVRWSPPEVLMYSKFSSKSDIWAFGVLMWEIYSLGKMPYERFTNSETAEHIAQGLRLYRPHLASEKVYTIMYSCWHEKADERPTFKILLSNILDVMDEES

DC50 | Compound
0.001 to 0.01 µM | C[C@H]1CN(C(=O)NCCOCCOCCOCCCc2cccc3c2CN(C2CCC(=O)NC2=O)C3=O)CCN1c1ccc(Nc2cc(-c3ccnc(N4CCn5c(cc6c5CC(C)(C)C6)C4=O)c3CO)cn(C)c2=O)nc1 (some centres unmarked) [Compound 47]
0.001 to 0.01 µM | C[C@H]1CN(C(=O)N(C)CCOCCOCCOCCOCCOCCCc2cccc3c2CN(C2CCC(=O)NC2=O)C3=O)CCN1c1ccc(Nc2cc(-c3ccnc(N4CCn5c(cc6c5CC(C)(C)C6)C4=O)c3CO)cn(C)c2=O)nc1 (some centres unmarked) [Compound 45]
0.001 to 0.01 µM | C[C@H]1CN(CCOCCOCCOCCOCCOCCNc2cccc3c2C(=O)N(C2CCC(=O)NC2=O)C3=O)CCN1c1ccc(Nc2cc(-c3ccnc(N4CCn5c(cc6c5CC(C)(C)C6)C4=O)c3CO)cn(C)c2=O)nc1 (some centres unmarked) [Compound 39]
0.01 to 1 µM | C[C@H]1CN(C(=O)CCOCCN2CCN(CCOCCOCCNc3cccc4c3C(=O)N(C3CCC(=O)NC3=O)C4=O)CC2)CCN1c1ccc(Nc2cc(-c3ccnc(N4CCn5c(cc6c5CC(C)(C)C6)C4=O)c3CO)cn(C)c2=O)nc1 (some centres unmarked) [Compound 42]
0.001 to 0.01 µM | C[C@H]1CN(C(=O)CNc2cccc3c2C(=O)N(C2CCC(=O)NC2=O)C3=O)CCN1c1ccc(Nc2cc(-c3ccnc(N4CCn5c(cc6c5CC(C)(C)C6)C4=O)c3CO)cn(C)c2=O)nc1 (some centres unmarked) [Compound 35]

Second part, the compound before the results:

Compound | DC50
C[C@H]1CN(C(=O)C2CC3(CC(Nc4cccc5c4C(=O)N(C4CCC(=O)NC4=O)C5=O)C3)C2)CCN1c1ccc(Nc2cc(-c3ccnc(N4CCn5c(cc6c5CC(C)(C)C6)C4=O)c3CO)cn(C)c2=O)nc1 (some centres unmarked) [Compound 34] | 0.001 to 0.01 µM
Cn1cc(-c2ccnc(-n3ncc4cc(C(C)(C)C)cc(F)c4c3=O)c2CO)cc(Nc2cc3n(n2)CCN(C(=O)CCOCCOCCOCCNc2cccc4c2C(=O)N(C2CCC(=O)NC2=O)C4=O)C3)c1=O (centres unmarked) [Compound 3] | 0.001 to 0.01 µM
Cn1cc(-c2ccnc(-n3ncc4cc(C(C)(C)C)cc(F)c4c3=O)c2CO)cc(Nc2cc3n(n2)CCN(C(=O)CN2CCN(CCc4cccc5c4CN(C4CCC(=O)NC4=O)C5=O)CC2)C3)c1=O (centres unmarked) [Compound 22] | 0.01 to 1 µM
Cn1cc(-c2ccnc(-n3ncc4cc(C(C)(C)C)cc(F)c4c3=O)c2CO)cc(Nc2cc3n(n2)CCN(C(=O)[C@H]2CC[C@H](Nc4cccc5c4C(=O)N(C4CCC(=O)NC4=O)C5=O)CC2)C3)c1=O (some centres unmarked) [Compound 15] | 0.001 to 0.01 µM
Cn1cc(-c2ccnc(-n3ncc4cc(C(C)(C)C)cc(F)c4c3=O)c2CO)cc(Nc2cc3n(n2)CCN(C(=O)CCOCCCc2cccc4c2CN(C2CCC(=O)NC2=O)C4=O)C3)c1=O (centres unmarked) [Compound 2] | 0.01 to 1 µM
Cn1cc(-c2ccnc(-n3ncc4cc(C(C)(C)C)cc(F)c4c3=O)c2CO)cc(Nc2cc3n(n2)CCN(C(=O)CCOCCNc2cccc4c2C(=O)N(C2CCC(=O)NC2=O)C4=O)C3)c1=O (centres unmarked) [Compound 1] | 0.001 to 0.01 µM
CN[C@@H](C)C(=O)N[C@H](C(=O)N1C[C@@H](NC(=O)CCOCCOCCOCCC(=O)N2CCn3nc(Nc4cc(-c5ccnc(-n6ncc7cc(C(C)(C)C)cc(F)c7c6=O)c5CO)cn(C)c4=O)cc3C2)C[C@H]1C(=O)N[C@@H]1CCCc2ccccc21)C1CCCCC1 [Compound 5, (2S,4S)-4-(3-(2-(2-(3-(2-((2′-(6-(tert-butyl)-8-fluoro-1-oxophthalazin-2(1H)-yl)-3′-(hydroxymethyl)-1-methyl-6-oxo-1,6-dihydro-[3,4′-bipyridin]-5-yl)amino)-6,7-dihydropyrazolo[1,5-a]pyrazin-5(4H)-yl)-3-oxopropoxy)ethoxy)ethoxy)propanamido)-1-((S)-2-cyclohexyl-2-((S)-2-(methylamino)propanamido)acetyl)—N—((R)-1,2,3,4-tetrahydronaphthalen-1-yl)pyrrolidine-2-carboxamide] | 0.01 to 1 µM
Cn1cc(-c2ccnc(-n3ncc4cc(C(C)(C)C)cc(F)c4c3=O)c2CO)cc(Nc2cc3n(n2)CCN(CCCCCCc2cccc4c2CN(C2CCC(=O)NC2=O)C4=O)C3)c1=O (centres unmarked) [Compound 19] | 0.001 to 0.01 µM
Cn1cc(-c2ccnc(-n3ncc4cc(C(C)(C)C)cc(F)c4c3=O)c2CO)cc(Nc2cc3n(n2)CCN(C(=O)CCOCCCc2cccc4c2C(=O)N(C2CCC(=O)NC2=O)C4=O)C3)c1=O (centres unmarked) [Compound 21] | 0.01 to 1 µM
